These results are taken from US9051265B2, “N-benzylindole modulators of PPARG” (The Scripps Research Institute, priority 2011, dated 2015).

In the assay the test system is PPARG (murine PPARg2 or full-length human PPARg). The experiment in a line: Cell-based PPRE-luciferase transactivation assay in COS-1 cells.

Consider `CN(CCOc1ccc(CC2SC(=O)NC2=O)cc1)c1ccccn1` (stereo not shown) [rosiglitazone], for which the “activation of the PPRE reporter” value is “about 5 fold”.
